pIC50: −log10 of the molar value. Activity calls are given as the source filed them. No cut-off for these calls is given here.
What was measured:
[1] = molecular target: T1, Mitogen-activated protein kinase; ERK1/ERK2 (Homo sapiens) (UniProt P27361+P28482); experiment: Reduction of ERK1/2 activation in human MDA-MB-435 cells at 20 uM after 1 hr by Western blot analysis; assay type: cell-based
[2] = molecular target: Vascular endothelial growth factor receptor 2 (Homo sapiens, UniProt P35968)
[3] = molecular target: Vascular endothelial growth factor receptor 1 (Homo sapiens, UniProt P17948); experiment: Inhibition of VEGFR1 in human A498 cells by phosphotyrosine cell-based ELISA
[4] = molecular target: T1, Mitogen-activated protein kinase; ERK1/ERK2 (Homo sapiens); experiment: Reduction of ERK1/2 activation in human MDA-MB-435 cells at 20 uM after 4 hrs by Western blot analysis; assay type: cell-based
[5] = molecular target: Epidermal growth factor receptor (Homo sapiens, UniProt P00533)
[6] = molecular target: T2, Dihydrofolate reductase (Escherichia coli) (UniProt P0ABQ4); experiment: Inhibition of Escherichia coli DHFR at IC50
T2 sequence (whole entry): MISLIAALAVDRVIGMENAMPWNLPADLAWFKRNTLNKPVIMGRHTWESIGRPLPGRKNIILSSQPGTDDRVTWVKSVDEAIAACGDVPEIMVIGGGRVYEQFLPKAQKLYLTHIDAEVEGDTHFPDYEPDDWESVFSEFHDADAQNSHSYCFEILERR

[7] = molecular target: Platelet-derived growth factor receptor beta (Homo sapiens, UniProt P09619); experiment: Inhibition of PDGFRbeta in human SF539 cells by phosphotyrosine cell-based ELISA; design: species or system SF-539
[8] = molecular target: T3, Receptor-type tyrosine-protein kinase FLT3 (Homo sapiens, UniProt P36888); experiment: Inhibition of Flt3 activity in human […] cells by phosphotyrosine cell-based ELISA
T3 sequence (P36888 whole entry): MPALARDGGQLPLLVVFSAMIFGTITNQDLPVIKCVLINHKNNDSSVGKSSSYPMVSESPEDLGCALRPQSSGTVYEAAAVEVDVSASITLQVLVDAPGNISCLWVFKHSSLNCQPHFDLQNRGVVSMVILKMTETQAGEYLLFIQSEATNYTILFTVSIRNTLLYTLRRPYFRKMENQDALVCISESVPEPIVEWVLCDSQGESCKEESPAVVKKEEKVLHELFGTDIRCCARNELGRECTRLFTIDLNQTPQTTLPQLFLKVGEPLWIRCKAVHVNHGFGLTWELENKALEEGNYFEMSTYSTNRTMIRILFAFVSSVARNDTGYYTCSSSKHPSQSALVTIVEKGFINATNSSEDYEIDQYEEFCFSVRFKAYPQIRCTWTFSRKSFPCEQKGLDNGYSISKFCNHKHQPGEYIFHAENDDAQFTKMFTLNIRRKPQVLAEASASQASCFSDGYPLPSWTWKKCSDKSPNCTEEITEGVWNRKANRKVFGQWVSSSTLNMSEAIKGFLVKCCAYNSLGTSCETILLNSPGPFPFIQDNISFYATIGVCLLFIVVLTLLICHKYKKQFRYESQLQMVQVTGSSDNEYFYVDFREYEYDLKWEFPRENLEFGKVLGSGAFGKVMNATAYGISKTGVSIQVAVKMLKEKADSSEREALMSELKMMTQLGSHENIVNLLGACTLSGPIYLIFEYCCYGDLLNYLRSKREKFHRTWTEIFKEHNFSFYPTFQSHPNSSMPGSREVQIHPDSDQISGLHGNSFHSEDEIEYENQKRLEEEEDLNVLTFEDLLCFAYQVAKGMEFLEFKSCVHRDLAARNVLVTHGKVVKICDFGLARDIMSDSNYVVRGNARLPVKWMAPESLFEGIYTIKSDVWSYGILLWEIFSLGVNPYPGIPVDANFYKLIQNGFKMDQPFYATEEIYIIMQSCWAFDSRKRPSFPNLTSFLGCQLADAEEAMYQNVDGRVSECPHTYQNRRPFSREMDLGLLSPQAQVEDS

Dihydrofolate reductase = molecular target: T4, Dihydrofolate reductase (Homo sapiens, UniProt P00374); experiment: Inhibition of human DHFR
T4 sequence (P00374 whole entry): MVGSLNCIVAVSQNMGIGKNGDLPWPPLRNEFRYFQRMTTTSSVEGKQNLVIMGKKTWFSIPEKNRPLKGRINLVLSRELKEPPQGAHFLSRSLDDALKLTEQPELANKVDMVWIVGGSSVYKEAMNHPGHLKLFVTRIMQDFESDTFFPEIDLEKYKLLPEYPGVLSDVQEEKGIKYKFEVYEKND

[9] = molecular target: T5, Dihydrofolate reductase (Homo sapiens) (UniProt P00374); experiment: Inhibition of human DHFR at IC50
T5 sequence (whole entry): T4 sequence (P00374 whole entry)

T1 sequence (P27361 whole entry, looked up): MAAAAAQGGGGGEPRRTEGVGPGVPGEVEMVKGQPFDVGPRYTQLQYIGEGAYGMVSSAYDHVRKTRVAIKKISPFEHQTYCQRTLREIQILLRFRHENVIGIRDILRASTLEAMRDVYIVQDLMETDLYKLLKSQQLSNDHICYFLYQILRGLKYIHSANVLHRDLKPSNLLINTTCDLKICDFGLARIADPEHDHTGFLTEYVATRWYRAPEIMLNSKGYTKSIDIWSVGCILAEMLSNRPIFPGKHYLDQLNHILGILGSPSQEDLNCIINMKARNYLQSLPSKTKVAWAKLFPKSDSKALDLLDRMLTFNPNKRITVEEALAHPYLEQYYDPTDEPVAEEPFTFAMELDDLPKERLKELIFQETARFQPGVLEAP
T1 sequence (P28482 whole entry, looked up): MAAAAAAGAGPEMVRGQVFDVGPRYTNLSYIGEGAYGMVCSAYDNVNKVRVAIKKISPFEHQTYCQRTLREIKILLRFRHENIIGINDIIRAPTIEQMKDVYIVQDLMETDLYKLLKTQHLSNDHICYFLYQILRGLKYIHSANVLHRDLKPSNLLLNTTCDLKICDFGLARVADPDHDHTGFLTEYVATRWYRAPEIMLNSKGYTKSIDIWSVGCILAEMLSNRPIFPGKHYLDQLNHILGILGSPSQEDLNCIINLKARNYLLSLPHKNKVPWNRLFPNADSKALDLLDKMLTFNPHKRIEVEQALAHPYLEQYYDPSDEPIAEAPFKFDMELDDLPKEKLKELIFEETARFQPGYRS
Vascular endothelial growth factor receptor 1, sequence (P17948 whole entry): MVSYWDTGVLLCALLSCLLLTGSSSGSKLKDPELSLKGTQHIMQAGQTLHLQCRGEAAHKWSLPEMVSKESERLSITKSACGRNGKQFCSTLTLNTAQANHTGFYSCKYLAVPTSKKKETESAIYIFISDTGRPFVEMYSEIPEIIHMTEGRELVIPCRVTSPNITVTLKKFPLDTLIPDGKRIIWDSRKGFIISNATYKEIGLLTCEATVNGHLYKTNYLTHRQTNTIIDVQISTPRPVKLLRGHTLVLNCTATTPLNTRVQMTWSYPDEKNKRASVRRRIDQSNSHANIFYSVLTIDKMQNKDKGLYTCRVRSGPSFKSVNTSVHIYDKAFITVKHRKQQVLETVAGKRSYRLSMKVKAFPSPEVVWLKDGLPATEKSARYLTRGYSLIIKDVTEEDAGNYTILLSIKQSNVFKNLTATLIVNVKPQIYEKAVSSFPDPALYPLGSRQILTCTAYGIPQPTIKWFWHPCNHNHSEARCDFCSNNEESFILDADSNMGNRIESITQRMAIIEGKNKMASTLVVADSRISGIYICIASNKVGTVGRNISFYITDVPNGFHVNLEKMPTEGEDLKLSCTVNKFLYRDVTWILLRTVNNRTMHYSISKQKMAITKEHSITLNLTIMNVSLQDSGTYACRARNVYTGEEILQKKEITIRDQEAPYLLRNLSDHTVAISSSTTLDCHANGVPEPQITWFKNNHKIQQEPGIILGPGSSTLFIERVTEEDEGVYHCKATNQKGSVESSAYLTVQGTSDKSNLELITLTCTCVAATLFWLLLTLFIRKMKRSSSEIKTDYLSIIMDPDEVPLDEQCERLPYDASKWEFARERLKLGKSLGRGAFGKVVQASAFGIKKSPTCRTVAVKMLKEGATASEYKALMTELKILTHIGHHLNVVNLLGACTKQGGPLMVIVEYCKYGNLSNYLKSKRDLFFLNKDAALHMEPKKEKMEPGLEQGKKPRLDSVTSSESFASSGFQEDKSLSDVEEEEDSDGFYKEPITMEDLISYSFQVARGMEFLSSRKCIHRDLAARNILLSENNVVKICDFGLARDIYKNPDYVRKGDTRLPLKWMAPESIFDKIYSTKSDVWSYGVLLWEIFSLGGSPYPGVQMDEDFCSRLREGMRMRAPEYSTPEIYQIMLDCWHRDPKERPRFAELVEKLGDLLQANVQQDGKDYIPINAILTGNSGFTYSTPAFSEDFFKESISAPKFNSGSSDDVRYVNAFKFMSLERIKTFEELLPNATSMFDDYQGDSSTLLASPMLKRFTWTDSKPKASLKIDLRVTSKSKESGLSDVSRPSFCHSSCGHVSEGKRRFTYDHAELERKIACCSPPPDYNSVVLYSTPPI
Vascular endothelial growth factor receptor 2, sequence (P35968 whole entry): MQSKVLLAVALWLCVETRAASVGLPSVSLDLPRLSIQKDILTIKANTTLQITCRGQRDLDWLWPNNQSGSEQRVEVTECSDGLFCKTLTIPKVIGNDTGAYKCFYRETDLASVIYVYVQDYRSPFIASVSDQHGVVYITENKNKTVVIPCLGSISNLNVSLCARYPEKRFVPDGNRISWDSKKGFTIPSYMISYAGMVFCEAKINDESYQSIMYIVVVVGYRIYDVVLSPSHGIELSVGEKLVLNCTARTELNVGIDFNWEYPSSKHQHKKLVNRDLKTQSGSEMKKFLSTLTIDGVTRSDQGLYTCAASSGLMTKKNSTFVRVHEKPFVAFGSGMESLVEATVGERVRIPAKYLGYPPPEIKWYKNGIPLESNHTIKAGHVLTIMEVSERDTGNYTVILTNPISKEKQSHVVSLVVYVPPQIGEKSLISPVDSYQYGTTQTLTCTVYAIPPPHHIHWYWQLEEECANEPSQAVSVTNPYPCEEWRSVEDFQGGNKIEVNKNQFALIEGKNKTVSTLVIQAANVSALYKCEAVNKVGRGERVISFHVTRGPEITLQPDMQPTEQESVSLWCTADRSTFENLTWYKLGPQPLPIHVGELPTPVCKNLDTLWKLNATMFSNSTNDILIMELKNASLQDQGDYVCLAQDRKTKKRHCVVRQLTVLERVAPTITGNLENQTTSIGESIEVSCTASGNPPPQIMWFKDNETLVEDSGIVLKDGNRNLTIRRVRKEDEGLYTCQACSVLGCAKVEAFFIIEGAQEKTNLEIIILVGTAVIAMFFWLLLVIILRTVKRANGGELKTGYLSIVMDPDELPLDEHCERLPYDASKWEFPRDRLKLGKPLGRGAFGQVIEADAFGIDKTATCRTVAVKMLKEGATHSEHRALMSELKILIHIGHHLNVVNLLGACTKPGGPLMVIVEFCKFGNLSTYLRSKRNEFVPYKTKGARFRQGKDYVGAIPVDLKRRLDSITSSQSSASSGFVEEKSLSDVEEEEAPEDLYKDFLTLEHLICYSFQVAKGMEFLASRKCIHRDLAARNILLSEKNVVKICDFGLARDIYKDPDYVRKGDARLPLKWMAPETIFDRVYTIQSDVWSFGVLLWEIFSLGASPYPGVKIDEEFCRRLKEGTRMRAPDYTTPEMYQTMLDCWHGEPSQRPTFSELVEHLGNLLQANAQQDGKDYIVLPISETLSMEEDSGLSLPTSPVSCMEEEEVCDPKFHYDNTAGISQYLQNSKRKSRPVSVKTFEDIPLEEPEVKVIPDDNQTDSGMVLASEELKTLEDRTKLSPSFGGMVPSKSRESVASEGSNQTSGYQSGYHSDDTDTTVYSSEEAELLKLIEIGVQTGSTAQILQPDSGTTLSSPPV
Epidermal growth factor receptor, sequence (P00533 whole entry): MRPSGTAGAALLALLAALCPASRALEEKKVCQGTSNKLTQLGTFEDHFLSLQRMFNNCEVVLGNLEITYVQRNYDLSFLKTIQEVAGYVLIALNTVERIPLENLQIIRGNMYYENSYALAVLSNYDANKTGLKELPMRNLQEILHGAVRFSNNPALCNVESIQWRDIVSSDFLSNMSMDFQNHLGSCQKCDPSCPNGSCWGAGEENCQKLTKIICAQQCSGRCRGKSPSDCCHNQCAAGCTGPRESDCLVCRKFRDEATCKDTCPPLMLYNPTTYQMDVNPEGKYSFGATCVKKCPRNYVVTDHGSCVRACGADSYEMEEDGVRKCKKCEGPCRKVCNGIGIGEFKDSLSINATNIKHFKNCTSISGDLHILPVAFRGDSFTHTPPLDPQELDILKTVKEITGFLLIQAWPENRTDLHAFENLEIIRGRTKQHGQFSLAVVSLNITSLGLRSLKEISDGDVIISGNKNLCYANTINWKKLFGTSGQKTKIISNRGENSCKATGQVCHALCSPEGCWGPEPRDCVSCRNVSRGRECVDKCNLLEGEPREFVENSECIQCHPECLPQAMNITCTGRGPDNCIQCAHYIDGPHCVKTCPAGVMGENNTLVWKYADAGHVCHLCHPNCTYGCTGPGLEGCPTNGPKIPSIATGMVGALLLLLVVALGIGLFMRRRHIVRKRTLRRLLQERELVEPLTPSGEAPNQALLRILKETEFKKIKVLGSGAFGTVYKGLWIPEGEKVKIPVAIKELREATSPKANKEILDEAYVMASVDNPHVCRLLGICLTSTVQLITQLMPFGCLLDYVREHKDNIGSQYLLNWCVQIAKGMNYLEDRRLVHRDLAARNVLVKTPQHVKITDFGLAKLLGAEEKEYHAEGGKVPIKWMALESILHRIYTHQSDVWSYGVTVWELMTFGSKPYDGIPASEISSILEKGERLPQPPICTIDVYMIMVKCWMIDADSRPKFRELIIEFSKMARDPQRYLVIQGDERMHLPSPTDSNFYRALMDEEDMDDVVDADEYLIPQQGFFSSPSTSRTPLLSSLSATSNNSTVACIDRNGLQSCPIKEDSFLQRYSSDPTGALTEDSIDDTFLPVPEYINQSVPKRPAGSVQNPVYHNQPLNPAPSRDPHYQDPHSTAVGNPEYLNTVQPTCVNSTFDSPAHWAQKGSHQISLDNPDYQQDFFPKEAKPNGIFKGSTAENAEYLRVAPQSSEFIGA

| Structure (SMILES) | Activity [1] | pIC50 [2] | pIC50 [3] | Activity [4] | pIC50 [5] | inhibition [6] [%] | pIC50 [7] | pIC50 [8] | pIC50 (Dihydrofolate reductase) | inhibition [9] [%] |
| --- | --- | --- | --- | --- | --- | --- | --- | --- | --- | --- |
| Cc1ccc(Sc2cccc3[nH]c4nc(N)nc(N)c4c23)cc1 | Active | 4.25 | 3.80 | Active | 4.98 | 27 | 4.39 | 4.40 | < 4.51 | 7 |
| Nc1nc(N)c2c(n1)[nH]c1cccc(Sc3ccccc3)c12 | Active | – | 3.93 | Active | – | 35 | – | 4.39 | < 4.48 | 17 |
| COc1ccc(C(=O)Nc2sc3c(c2C(N)=O)CCCC3)cc1OC | – | – | – | – | – | – | – | 5.54 | – | – |
